# Data reported in patent US11312712B2, “Azabenzimidazoles and their use as AMPA receptor modulators” (Janssen Pharmaceutica NV, priority 2015, dated 2022).
# Target: GluA1o-γ8 (GRIA1o-CACNG8 fusion construct) (Homo sapiens (Human), UniProt P42261+Q8WXS5)
# Assay: Calcium flux assay (FLIPR), inhibition of TARP γ8 dependent AMPA receptor activity
# Format: cell-based
# Details: GluA1o-γ8 (GRIA1o-CACNG8 fusion) in HEK293 cells, calcium flux after 15 μM glutamate
# How it was run: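 HEK293 cells stably expressing a 1:1 GRIA1o–CACNG8 fusion were loaded with Calcium-5/6 dye plus compound in pH 7.4 HEPES-buffered saline. FLIPR calcium flux after 15 μM glutamate was normalized to untreated and 10 μM CP465022 controls, and a four-parameter logistic fit gave pIC50.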
# Sequence of GluA1o-γ8 (GRIA1o-CACNG8 fusion construct) (P42261 other isoform, or with tags, fused parts or gaps): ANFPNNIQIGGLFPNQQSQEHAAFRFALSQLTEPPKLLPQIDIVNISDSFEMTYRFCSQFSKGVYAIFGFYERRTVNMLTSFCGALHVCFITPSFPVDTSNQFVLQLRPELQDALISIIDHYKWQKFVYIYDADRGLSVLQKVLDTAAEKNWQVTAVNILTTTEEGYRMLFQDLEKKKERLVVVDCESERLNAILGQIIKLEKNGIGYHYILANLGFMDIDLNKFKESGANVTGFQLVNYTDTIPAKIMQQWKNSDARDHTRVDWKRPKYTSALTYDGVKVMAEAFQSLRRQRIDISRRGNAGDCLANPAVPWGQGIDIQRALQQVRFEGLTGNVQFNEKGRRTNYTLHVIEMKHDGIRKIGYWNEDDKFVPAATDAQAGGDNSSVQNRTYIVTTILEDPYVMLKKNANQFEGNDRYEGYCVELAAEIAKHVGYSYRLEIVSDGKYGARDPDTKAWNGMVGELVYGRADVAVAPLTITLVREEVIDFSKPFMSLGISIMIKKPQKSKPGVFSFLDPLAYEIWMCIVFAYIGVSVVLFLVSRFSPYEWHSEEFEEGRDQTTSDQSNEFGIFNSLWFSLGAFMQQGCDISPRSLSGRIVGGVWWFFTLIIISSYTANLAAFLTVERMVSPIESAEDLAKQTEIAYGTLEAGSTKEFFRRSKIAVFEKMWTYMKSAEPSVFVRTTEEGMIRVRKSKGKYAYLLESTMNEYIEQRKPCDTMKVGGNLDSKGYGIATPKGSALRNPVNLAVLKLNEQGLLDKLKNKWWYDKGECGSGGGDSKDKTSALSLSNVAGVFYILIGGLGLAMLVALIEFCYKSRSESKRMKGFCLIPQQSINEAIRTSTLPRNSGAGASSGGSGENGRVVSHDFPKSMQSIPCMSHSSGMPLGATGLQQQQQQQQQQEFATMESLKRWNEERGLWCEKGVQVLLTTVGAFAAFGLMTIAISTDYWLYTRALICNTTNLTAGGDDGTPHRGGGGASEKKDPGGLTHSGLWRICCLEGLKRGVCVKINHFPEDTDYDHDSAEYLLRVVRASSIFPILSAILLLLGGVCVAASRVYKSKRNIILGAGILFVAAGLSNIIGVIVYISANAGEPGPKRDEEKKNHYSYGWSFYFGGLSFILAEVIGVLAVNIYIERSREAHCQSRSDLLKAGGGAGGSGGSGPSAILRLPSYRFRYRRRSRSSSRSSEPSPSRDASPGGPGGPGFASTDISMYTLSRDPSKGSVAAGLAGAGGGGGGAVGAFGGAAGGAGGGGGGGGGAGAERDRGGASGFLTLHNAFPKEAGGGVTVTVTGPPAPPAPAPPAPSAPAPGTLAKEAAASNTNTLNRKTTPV
row,SMILES,IC50 [nM]
1,"FC(F)(F)c1ccc2nc(C3CCOC3)n(-c3ccc4[nH]ncc4c3)c2n1 (racemic) [Example 100, (racemic)-3-(1H-Indazol-5-yl)-2-tetrahydrofuran-3-yl-5-(trifluoromethyl)imidazo[4,5-b]pyridine]",251
2,"FC(F)(F)c1ccc2nc(C(F)(F)F)n(-c3ccc4[nH]ncc4c3)c2n1 [Example 89, 3-(1H-Indazol-5-yl)-2,5-bis(trifluoromethyl)imidazo[4,5-b]pyridine]",1.26
3,"O=C1Cc2cc(-n3c(C4CC4)nc4ccc(C(F)F)nc43)ccc2N1 [Example 140, 5-[2-Cyclopropyl-5-(difluoromethyl)imidazo[4,5-b]pyridin-3-yl]indolin-2-one]",2.51
4,"Fc1ccc(-c2nc3ccc(Cl)nc3n2-c2ccc3[nH]ncc3c2)cc1 [Example 7, 5-Chloro-2-(4-fluorophenyl)-3-(1H-indazol-5-yl)imidazo[4,5-b]pyridine]",2
5,"O=c1[nH]c2ccc(-n3c(C4CCC4)nc4ccc(C(F)(F)F)nc43)cc2s1 [Example 132, 6-[2-Cyclobutyl-5-(trifluoromethyl)imidazo[4,5-b]pyridin-3-yl]-3H-1,3-benzothiazol-2-one]",0.0631
6,"O=c1[nH]c2ccc(-n3c(-c4ccc(F)nc4)nc4cccnc43)cc2s1 [Example 28, 6-[2-(6-Fluoro-3-pyridyl)imidazo[4,5-b]pyridin-3-yl]-3H-1,3-benzothiazol-2-one]",251
7,"O=c1[nH]c2ccc(-n3c(C4CC4)nc4ccc(C(F)(F)F)nc43)cc2o1 [Example 107, 6-[2-Cyclopropyl-5-(trifluoromethyl)imidazo[4,5-b]pyridin-3-yl]-3H-1,3-benzoxazol-2-one]",15.8
8,"Cc1cnc2c(c1)nc(-c1ccccc1)n2-c1ccc2[nH]ncc2c1 [Example 9, 3-(1H-Indazol-5-yl)-6-methyl-2-phenyl-imidazo[4,5-b]pyridine]",25.1
9,"CC(F)c1nc2ccc(C(F)(F)F)nc2n1-c1ccc2[nH]ncc2c1 (racemic) [Example 117, (R/S)-2-(1-fluoroethyl)-3-(1H-indazol-5-yl)-5-(trifluoromethyl)imidazo[4,5-b]pyridine]",5.01
10,"CCc1nc2ccc(C(F)(F)F)nc2n1-c1ccc2[nH]ncc2c1 [Example 105, 2-Ethyl-3-(1H-indazol-5-yl)-5-(trifluoromethyl)imidazo[4,5-b]pyridine]",7.94
11,"O=c1[nH]c2ccc(-n3c(-c4ccccc4)nc4ccc(C(F)(F)F)nc43)cc2s1 [Example 14, 6-[2-Phenyl-5-(trifluoromethyl)imidazo[4,5-b]pyridin-3-yl]-3H-1,3-benzothiazol-2-one]",0.158
12,"FC(F)(F)c1nc2ccc(C3CC3)nc2n1-c1ccc2[nH]ncc2c1 [Example 125, 5-Cyclopropyl-3-(1H-indazol-5-yl)-2-(trifluoromethyl)imidazo[4,5-b]pyridine]",0.794
13,"Clc1ccc2nc(C3CCCC3)n(-c3ccc4[nH]ncc4c3)c2n1 [Example 11, 5-Chloro-2-cyclopentyl-3-(1H-indazol-5-yl)imidazo[4,5-b]pyridine]",10
14,"O=c1[nH]c2ccc(-n3c(-c4ccccc4)nc4ccc(F)nc43)cc2s1 [Example 15, 6-(5-Fluoro-2-phenyl-imidazo[4,5-b]pyridin-3-yl)-3H-1,3-benzothiazol-2-one]",3.16
15,"O=C1Cc2cc(-n3c(-c4ccc(F)cc4)nc4ccc(F)nc43)ccc2N1 [Example 37, 5-[5-Fluoro-2-(4-fluorophenyl)imidazo[4,5-b]pyridin-3-yl]indolin-2-one]",6.31
16,"Fc1cc(-c2nc3ccc(C(F)(F)F)nc3n2-c2ccc3[nH]ncc3c2)ccn1 [Example 165, 2-(2-Fluoro-4-pyridyl)-3-(1H-indazol-5-yl)-5-(trifluoromethyl)imidazo[4,5-b]pyridine]",1.58

# Results, then the molecule that gave them:
row,IC50 [nM],SMILES
1,20,"Cc1cc(-n2cnc3ccc(C(F)(F)F)nc32)cc2cn[nH]c12 [Example 194, 3-(7-Methyl-1H-indazol-5-yl)-5-(trifluoromethyl)imidazo[4,5-b]pyridine]"
2,3.98,"Cc1cc(-n2c(C(F)(F)F)nc3ccc(C(F)(F)F)nc32)cc2[nH]ncc12 [Example 289, 3-(4-Methyl-1H-indazol-6-yl)-2,5-bis(trifluoromethyl)imidazo[4,5-b]pyridine]"
3,0.0501,"Cc1cc(-n2c(C)cc3ccc(C(F)(F)F)nc32)cc2cn[nH]c12 [Example 373, 2-Methyl-1-(7-methyl-1H-indazol-5-yl)-6-(trifluoromethyl)pyrrolo[2,3-b]pyridine]"
4,0.0794,"Cc1cc(-n2c(C)cc3ccc(C(F)F)nc32)cc2c1NC(=O)C2 [Example 421, 5-(6-(Difluoromethyl)-2-methyl-1H-pyrrolo[2,3-b]pyridin-1-yl)-7-methylindolin-2-one]"
5,1.26,"Fc1cnc2c(c1)nc(C(F)(F)F)n2-c1cc(Cl)c2[nH]ncc2c1 [Example 279, 3-(7-Chloro-1H-indazol-5-yl)-6-fluoro-2-(trifluoromethyl)imidazo[4,5-b]pyridine]"
6,0.0501,"FC(F)c1ccc2nc(C(F)(F)F)n(-c3cc(Cl)c4[nH]ncc4c3)c2n1 [Example 324, 3-(7-Chloro-1H-indazol-5-yl)-5-(difluoromethyl)-2-(trifluoromethyl)imidazo[4,5-b]pyridine]"
7,0.0501,"FC(F)c1ccc2nc(-c3ccccc3)n(-c3ccc4[nH]ncc4c3)c2n1 [Example 323, 5-(Difluoromethyl)-3-(1H-indazol-5-yl)-2-phenyl-imidazo[4,5-b]pyridine]"
8,10,"Cc1cc2ccc(C(F)(F)F)nc2n1-c1cnc2c(c1)CC(=O)N2 [Example 402, 5-[2-Methyl-6-(trifluoromethyl)pyrrolo[2,3-b]pyridin-1-yl]-1,3-dihydropyrrolo[2,3-b]pyridin-2-one]"
9,0.0126,"CC(C)c1cc2ccc(C(F)(F)F)nc2n1-c1ccc2c(c1)CC(=O)N2 [Example 396, 5-[2-Isopropyl-6-(trifluoromethyl)pyrrolo[2,3-b]pyridin-1-yl]indolin-2-one]"
10,0.0631,"FC(F)c1nc2ccc(C(F)(F)F)nc2n1-c1cc(Cl)c2[nH]ncc2c1 [Example 277, 3-(7-Chloro-1H-indazol-5-yl)-2-(difluoromethyl)-5-(trifluoromethyl)imidazo[4,5-b]pyridine]"
11,1,"CCOc1nc2ccc(C(F)(F)F)nc2n1-c1ccc2[nH]c(=O)sc2c1 [Example 240, 6-[2-Ethoxy-5-(trifluoromethyl)imidazo[4,5-b]pyridin-3-yl]-3H-1,3-benzothiazol-2-one]"
12,3.98,"CC(C)c1nc2ccc(C(F)(F)F)nc2n1-c1ccc2[nH]nc(F)c2c1 [Example 191, 3-(3-Fluoro-1H-indazol-5-yl)-2-isopropyl-5-(trifluoromethyl)imidazo[4,5-b]pyridine]"
13,0.251,"Cc1nc2ccc(C(F)(F)F)nc2n1-c1cc(Cl)c2[nH]ncc2c1 [Example 312, 3-(7-Chloro-1H-indazol-5-yl)-2-methyl-5-(trifluoromethyl)imidazo[4,5-b]pyridine]"
14,3160,"CC(C)(C)OC(=O)N1CC(c2nc3ccc(C(F)(F)F)nc3n2-c2ccc3c(c2)CC(=O)N3)C1 [Example 179, tert-Butyl 3-[3-(2-oxoindolin-5-yl)-5-(trifluoromethyl)imidazo[4,5-b]pyridin-2-yl]azetidine-1-carboxylate]"
